From patent publication US6653258B1 (priority 1987, dated 2003) come the findings set out here.

Each structure is given as a SMILES string.

Data set [1] has as its system Tomato plants, cv. Outdoor Girl. In words: Phytotoxicity on tomato plants, spray to maximum retention (Table VII). The settings on record: for phytotoxicity, linear 0-5 scale, Tomato: assessed one week after treatment, four replicates.
Data set [2] relates to Peanut plants, cv. Tomnut. In words: Phytotoxicity on peanut plants, root drench (Table VI). The following applies: for phytotoxicity, linear 0-5 scale, Peanut: 100 ppm root drench, assessed one week after treatment, four replicates. It counts as in vivo. As to the method:
Peanut plants, cv. Tomnut, were propagated in John Innes No. 1 compost. […] Uniform, 8-10 day-old plants were selected for the experiments.
Phytotoxicity was assessed on a linear 0- 5 scale where grade 1 ═slight damage and grade 5 ═dead plant.

For data set [3], the system named is foliar fungal diseases of plants. It counts as in vivo. Also on record: key to disease control grading, […] (VINE): 4: no disease; 3: trace −5% of disease on untreated plants; key to disease control grading, PUCCINIA RECONDITA (WHEAT) / disease control grading, VENTURIA INAEQUALIS (APPLE) / disease control grading, CERCOSPORA ARACHIDICOLA (PEANUT) / disease control grading, PH[…] (TOMATO) / disease control grading, P[…] (RICE): 4: no disease; 3: trace −5% of disease on untreated plants; 6-25% of disease on untreated plants; 1: 26-59% of disease on untreated plants; 60-100% of disease on untreated plants. The following applies: applied to soil (roots) and foliage one or two days before inoculation; for disease control grading, CERCOSPORA ARACHIDICOLA (PEANUT): Cercospora arachidicola on peanut; for disease control grading, P[…] (RICE): P[…] on rice; for disease control grading, PH[…] (TOMATO): Ph[…] on tomato; for disease control grading, PUCCINIA RECONDITA (WHEAT): Puccinia recondita on wheat; for disease control grading, VENTURIA INAEQUALIS (APPLE): Venturia inaequalis on apple; for disease control grading, […] (VINE): […] on vine.

Data set [4] has as its system Erysiphe graminis. Kind of data set: Foliar fungal disease test on Erysiphe graminis, plants inoculated 24 hours before treatment (Table V). The settings on record: plants inoculated 24 hours before treatment. Also on record: key: 4: no disease; 3: trace −5% of disease on untreated plants; 6-25% of disease on untreated plants; 1: 26-59% of disease on untreated plants; 60-100% of disease on untreated plants. It counts as in vivo.

The subject of data set [5] is various species of plant. In words: Plant growth regulating whole plant screen (Table VIII). It counts as in vivo. The settings on record: 4000 ppm (4 kg/ha) spray, assessed after 2-6 weeks. As to the method: This Example illustrates the plant growth regulating properties of compounds 1, 23 and 68 of Table I when tested on a whole plant screen against various species of plant. The plant species are identified in Table VII with the leaf stage at which they are sprayed.
A formulation of each chemical was applied at 4000 ppm (4 kg/ha in a 1000 l/ha field volume) using a tracksprayer and a SS8004E (Teejet) nozzle.
After spraying the plants were grown in a glasshouse with 25° C. day/22° C. night temperature. Supplementary lighting was supplied when necessary to provide an average photoperiod of 16 hours (14 hours minimum).
After 2-6 weeks in the glasshouse, depending on species and time of year, the plants were visually assessed for morphological characteristics against a control of plant sprayed with a blank formulation.

[6] abbreviates: 30 ppm spray to maximum retention.
[7] abbreviates: 100 ppm spray to maximum retention.
The mark [8] stands for this setting: 300 ppm spray to maximum retention.

Take `CO/C=C(/C(=O)OC)c1ccccc1COc1cccc(Cl)c1` [Compound No. 1 of Table I, (E)-methyl 2-[2-(3-chlorophenoxymethyl)phenyl]-3-methoxypropenoate]: the “phytotoxicity relative to the unsubstituted comparative compound” value in data set [1] (sprayed to maximum retention, assessed one week after (final) treatment (conclusion from Table VII)) was “less phytotoxic”; in data set [2] (root drench, assessed one week after treatment (conclusion from Table VI)), “less phytotoxic”.
Take `CO/C=C(/C(=O)OC)c1ccccc1COc1cccc(Cl)c1` [Compound 1, Table I]: the “phytotoxicity, linear 0-5 scale, Tomato” value in data set [1] (setting [6]) is recorded as 0.75; in data set [1] (setting [7]), 0.63; in data set [1] (setting [8]), 1.5. In addition, the “phytotoxicity, linear 0-5 scale, Peanut” value in data set [2] worked out at 0.
With `CO/C=C(/C(=O)OC)c1ccccc1COc1cccc(Cl)c1` [1 (Table I)], in data set [3], the “disease control grading, CERCOSPORA ARACHIDICOLA (PEANUT)” value (“disease control grading … (PEANUT)” for short) is given as 4; the “disease control grading, P[…] (RICE)” value was 4; the “disease control grading, PH[…] (TOMATO)” value stood at 4; the “disease control grading, PUCCINIA RECONDITA (WHEAT)” value (“disease control grading … (WHEAT)” for short) came out at 4. For the same compound, in data set [3], the “disease control grading, VENTURIA INAEQUALIS (APPLE)” value (from here on “disease control grading … (APPLE)”) stood at 4 and the “disease control grading, […] (VINE)” value amounted to 4. The “disease control grading, ERYSIPHE GRAMINIS (BARLEY)” value (“disease control grading … (BARLEY)” below) in data set [4] came to 4. In data set [5] (Maize (MZ, Earliking)), the “G = Greening effect” value was 1 (1 = 10-30%), the “I = Interligular or internodal length reduction” value was 1 (1 = 10-30%) and the “R = Retardation” value is on record as 1 (1 = 10-30%). Further, in data set [5] (Tomato (TO, Ailsa Craig)), the “A = Apical damage” value is on record as 3 (3 = 61-100%), the “P = Phytotoxicity” value is listed as 2 (2 = 11-30%), the “R = Retardation” value was 3 (3 = 61-100%) and the “T = Tillering or side shooting” value is listed as 1 (1 = 10-30%).
`CO/C=C(/C(=O)OC)c1ccccc1COc1cccnc1` [68 (Table I)]: in data set [3], the “disease control grading … (PEANUT)” value is 3 (trace −5% of disease on untreated plants); the “disease control grading, P[…] (RICE)” value is given as 3 (trace −5% of disease on untreated plants); the “disease control grading, PH[…] (TOMATO)” value is recorded as 3 (trace −5% of disease on untreated plants); the “disease control grading … (WHEAT)” value is 3 (trace −5% of disease on untreated plants). For the same compound, in data set [3], the “disease control grading … (APPLE)” value worked out at 4 and the “disease control grading, […] (VINE)” value came to 4. In addition, in data set [4], the “disease control grading … (BARLEY)” value is on record as 4. Also, in data set [5] (Barley (BR, Atem)), the “T = Tillering or side shooting” value is listed as 1 (1 = 10-30%).
`CO/C=C(/C(=O)OC)c1ccccc1COc1ccc(Cl)cc1` [23 (Table I)]: in data set [3], the “disease control grading … (PEANUT)” value came out at 4; the “disease control grading, P[…] (RICE)” value stood at 4; the “disease control grading, PH[…] (TOMATO)” value came to 4; the “disease control grading … (WHEAT)” value stood at 4. In data set [3], the “disease control grading … (APPLE)” value was found to be 4 and the “disease control grading, […] (VINE)” value is on record as 4. For the same compound, the “disease control grading … (BARLEY)” value in data set [4] is listed as 4. In data set [5] (Tomato (TO, Ailsa Craig)), the “A = Apical damage” value is 3 (3 = 61-100%), the “P = Phytotoxicity” value was 3 (3 = 31-50%) and the “R = Retardation” value is 3 (3 = 61-100%).
As for `CO/C=C(/C(=O)OC)c1ccccc1COc1ccc(Cl)cc1` [Compound 23, Table I], the “phytotoxicity, linear 0-5 scale, Tomato” value turned out to be 0.3 in data set [1] (setting [6]), 1.5 in data set [1] (setting [7]) and 2.3 in data set [1] (setting [8]). Further, the “phytotoxicity, linear 0-5 scale, Peanut” value in data set [2] worked out at 0.13.
Regarding `CO/C=C(/C(=O)OC)c1ccccc1COc1ccccc1` [comparative compound, reference compound], the “phytotoxicity, linear 0-5 scale, Tomato” value is 2.8 in data set [1] (setting [6]), 3.4 in data set [1] (setting [7]) and 3.0 in data set [1] (setting [8]). In addition, the “phytotoxicity, linear 0-5 scale, Peanut” value in data set [2] worked out at 1.5.
